Experimental data from publication PMC6150245 (Molecules : A Journal of Synthetic Chemistry and Natural …, 2017).
Converted amounts (≈) assume the structure as drawn. Bridge positions count the residues as written; N and C are the ends. Peptide text beside a SMILES is read from it. I, II: the chains in the order shown.

Legend:
C. albicans ATCC18804 = assay: Antifungal MIC, microdilution in RPMI 1640; assay type: cell-based, Candida albicans; conditions: C. albicans ATCC18804, RPMI 1640, 48 h, 37 °C, peptides 128-1 µM, triplicate
Method: The minimum inhibitory concentrations (MIC) were determined following the Clinical and Laboratory Standards Institute (CLSI) recommendations. Antibacterial and antifungal activity tests were performed using the microdilution method. For initial screening, peptides were tested against C. albicans ATCC18804, E. coli ATCC25922, and S. aureus ATCC25923. Briefly, bacterial cells in MH broth (80 μL aliquots containing 1.5 × 10^7 CFU) were incubated with synthetic peptides (serial dilution from 512 to 1 μM) dissolved in Milli-Q water. After incubation for 24 h at 37 °C, the microtiter plates were analyzed visually by addition of resazurin. For the antifungal assays, the culture medium was RPMI 1640 buffered with L-glutamine (pH 7.2), 0.165 M morpholinepropanesulfonic acid (MOPS), and 2% glucose. Cell suspensions (final concentration of 1 × 10^3–2.5 × 10^3 CFU/mL) were inoculated on a microdilution plate previously prepared with serially diluted synthetic peptides (128–1 μM). The plates were incubated for 48 h at 37 °C. Each assay was performed in triplicates. Additionally, amphotericin B and fluconazole were used as the control drugs. MIC was defined as the lowest concentration of peptide at which no growth was detected.

S. aureus ATCC25923 = assay type: cell-based, Staphylococcus aureus; conditions: for MIC: S. aureus ATCC25923, CAMHB, 24 h, 37 °C, duplicate; for MBC: S. aureus ATCC25923, sub-culture on MH agar, 99.9% death
Method: (§1) After confirming antibacterial activity, the peptides were tested against gram-positive and gram-negative multidrug-resistant bacteria, including strains of clinical origin. The peptides, p-BthTX-I, des-Lys^12/(p-BthTX-I)2, and Lys^13-(p-BthTX-I)2 were serially diluted (512–1 μM) in cation-adjusted BBL MH II broth (CAMHB; Becton, Dickson and Co., Sparks, MD, USA) as described by CLSI. Bacteria at 5.0 × 10^5 CFU/mL were added to the media and incubated for 24 h at 37 °C. […] Assays were performed in duplicates, and sterile broth was used as the negative control. To determine the minimal bactericidal concentration (MBC), 100 µL from each well of the MIC assay plates that inhibited bacterial growth were sub-cultured onto MH agar (MHA) plates. […] If the ratio of MBC/MIC was >4, the activity of the peptide was considered bacteriostatic, as described previously.

S. aureus SA16 = assay type: cell-based, Staphylococcus aureus; conditions: S. aureus SA16 (MRSA); for MBC: sub-culture on MH agar, 99.9% death
Method: as §1

S. aureus SA88 = assay type: cell-based, Staphylococcus aureus; conditions: for MIC: S. aureus SA88 (MRSA, daptomycin heteroresistant), CAMHB, 24 h, 37 °C, duplicate; for MBC: S. aureus SA88, sub-culture on MH agar, 99.9% death
Method: as §1

S. aureus SA90 = assay type: cell-based, Staphylococcus aureus
Method: as §1

K. pneumoniae ATCC700603 = assay type: cell-based, Klebsiella pneumoniae
Method: as §1

## CC(C)C[C@H](NC(=O)[C@H](Cc1c[nH]cn1)NC(=O)[C@H](Cc1ccc(O)cc1)NC(=O)[C@H](CCCNC(=N)N)NC(=O)[C@H](Cc1ccc(O)cc1)NC(=O)[C@H](CCCCN)NC(=O)[C@@H](N)CCCCN)C(=O)N[C@@H](CCCCN)C(=O)N1CCC[C@H]1C(=O)N[C@@H](Cc1ccccc1)C(=O)N[C@@H](CSSC[C@H](NC(=O)[C@H](Cc1ccccc1)NC(=O)[C@@H]1CCCN1C(=O)[C@H](CCCCN)NC(=O)[C@H](CC(C)C)NC(=O)[C@H](Cc1c[nH]cn1)NC(=O)[C@H](Cc1ccc(O)cc1)NC(=O)[C@H](CCCNC(=N)N)NC(=O)[C@H](Cc1ccc(O)cc1)NC(=O)[C@H](CCCCN)NC(=O)[C@@H](N)CCCCN)C(=O)O)C(=O)O [des-Lys^12/Lys^13-(p-BthTX-I)2] (I: H-KKYRYHLKPFC-OH / II: H-KKYRYHLKPFC-OH; disulfide I:11-II:11)
C. albicans ATCC18804
  MIC: >128 µM
S. aureus ATCC25923
  MIC: 128 µM (≈ 379 µg/mL)
  MBC: 256 µM (≈ 759 µg/mL)
S. aureus SA16; CAMHB, 24 h, 37 °C
  MIC: 128 µM (≈ 379 µg/mL)
S. aureus SA16
  MBC: 128 µM (≈ 379 µg/mL)
S. aureus SA88
  MIC: 256 µM (≈ 759 µg/mL)
  MBC: 512 µM (≈ 1520 µg/mL)

## CC(C)C[C@H](NC(=O)[C@H](Cc1c[nH]cn1)NC(=O)[C@H](Cc1ccc(O)cc1)NC(=O)[C@H](CCCNC(=N)N)NC(=O)[C@H](Cc1ccc(O)cc1)NC(=O)[C@H](CCCCN)NC(=O)[C@@H](N)CCCCN)C(=O)N[C@@H](CCCCN)C(=O)N1CCC[C@H]1C(=O)N[C@@H](Cc1ccccc1)C(=O)N[C@@H](CSSC[C@H](NC(=O)[C@H](Cc1ccccc1)NC(=O)[C@@H]1CCCN1C(=O)[C@H](CCCCN)NC(=O)[C@H](CC(C)C)NC(=O)[C@H](Cc1c[nH]cn1)NC(=O)[C@H](Cc1ccc(O)cc1)NC(=O)[C@H](CCCNC(=N)N)NC(=O)[C@H](Cc1ccc(O)cc1)NC(=O)[C@H](CCCCN)NC(=O)[C@@H](N)CCCCN)C(=O)N[C@@H](CCCCN)C(=O)N[C@@H](CCCCN)C(=O)O)C(=O)N[C@@H](CCCCN)C(=O)N[C@@H](CCCCN)C(=O)O [(p-BthTX-I)2]
C. albicans ATCC18804
  MIC: >128 µM
S. aureus ATCC25923
  MIC: 512 µM (≈ 1780 µg/mL)
  MBC: 512 µM (≈ 1780 µg/mL)
S. aureus SA16
  MBC: 512 µM (≈ 1780 µg/mL)
S. aureus SA88
  MIC: 256 µM (≈ 890 µg/mL)
  MBC: 256 µM (≈ 890 µg/mL)
S. aureus SA90; S. aureus SA90 (MRSA), CAMHB, 24 h, 37 °C
  MIC: 128 µM (≈ 445 µg/mL)
S. aureus SA90; S. aureus SA90, sub-culture on MH agar, 99.9% death
  MBC: 256 µM (≈ 890 µg/mL)
K. pneumoniae ATCC700603; K. pneumoniae ATCC700603 (SHV-18), CAMHB, 24 h, 37 °C
  MIC: 64 µM (≈ 222 µg/mL)
K. pneumoniae ATCC700603; K. pneumoniae ATCC700603, sub-culture on MH agar, 99.9% death
  MBC: 64 µM (≈ 222 µg/mL)
